# Target: T1, HIV-integrase (Human immunodeficiency virus type 1 group M subtype B, UniProt P12497)
# T1 construct: Recombinant integrase (0.26 ng) was incubated with the beads
# Test: HIV-Integrase Inhibition Activity (SPA bead integration assay with P33 labeled target DNA)
# Assay type: biochemical
# Conditions: recombinant integrase, class symbols; read-out: in vitro activity
# Procedure: HIV-Integrase Inhibition Activity. To evaluate in-vitro activity against HIV-integrase, 5 pmole of biotin labeled substrate DNA was bound to 100 μg of Streptavidin coated PVT SPA beads (Amersham Pharmacia Biotech). Recombinant integrase (0.26 ng) was incubated with the beads for 90 min at 37° C. Unbound enzyme was removed by washing the complex followed by addition of inhibitors and 0.1 fmol of P33 labeled target DNA. The reaction was stopped by adding EDTA to a final concentration of 10 mM. Samples were counted in TopCountNXT (Packard) and the CPM was used as a measure of integration. The reaction condition was as described in A. Engelman and R. Craigie, J. Virol. 69, 5908-5911 (1995). The sequences of substrate and target DNA were described in Nucleic Acid Research 22, 1121-1122 (1994). Activity equal to A refers to a compound having IC50=<10 nM while B and C denote compounds having […] and IC50>100 nM respectively.
row,SMILES,IC50 [nM]
1,"O=C(NC12CCC(CC1)Cn1c2nc(C(=O)NCc2ccc(F)cc2)c(O)c1=O)C(=O)N1CCC(O)CC1 [Example 63, N-(4-Fluorobenzyl)-3-hydroxy-10-(((4-hydroxy-1-piperidinyl)(oxo)acetyl)amino)-4-oxo-4,6,7,8,9,10-hexahydro-7,10-ethanopyrimido[1,2-a]azepine-2-carboxamide]",< 10
2,"C[C@@H]1CN(C(=O)C(=O)NC23CCC(CC2)Cn2c3nc(C(=O)NCc3ccc(F)cc3)c(O)c2=O)C[C@H](C)O1 [Example 64, 10-((((2R,6S)-2,6-Dimethyl-4-morpholinyl)(oxo)acetyl)amino)-N-(4-fluorobenzyl)-3-hydroxy-4-oxo-4,6,7,8,9,10-hexahydro-7,10-ethanopyrimido[1,2-a]azepine-2-carboxamide]",< 10
3,"O=C(NC12CCC(CC1)Cn1c2nc(C(=O)NCc2ccc(F)cc2)c(O)c1=O)C(=O)N1CC(O)C1 [Example 65, N-(4-Fluorobenzyl)-3-hydroxy-10-(((3-hydroxy-1-azetidinyl) (oxo)acetyl)amino)-4-oxo-4,6,7,8,9,10-hexahydro-7,10-ethanopyrimido[1,2-a]azepine-2-carboxamide]",< 10
4,"COC1CN(C(=O)C(=O)NC23CCC(CC2)Cn2c3nc(C(=O)NCc3ccc(F)cc3)c(O)c2=O)C1 [Example 66, N-(4-Fluorobenzyl)-3-hydroxy-10-(((3-methoxy-1-azetidinyl) (oxo)acetyl)amino)-4-oxo-4,6,7,8,9,10-hexahydro-7,10-ethanopyrimido[1,2-a]azepine-2-carboxamide]",< 10
5,"O=C(NC12CCC(CC1)Cn1c2nc(C(=O)NCc2ccc(F)cc2)c(O)c1=O)C(=O)N1CCC1 [Example 67, 10-((1-Azetidinyl(oxo)acetyl)amino)-N-(4-fluorobenzyl)-3-hydroxy-4-oxo-4,6,7,8,9,10-hexahydro-7,10-ethanopyrimido[1,2-a]azepine-2-carboxamide]",< 10
6,"CC(=O)N[C@H]1CCN(C(=O)C(=O)NC23CCC(CC2)Cn2c3nc(C(=O)NCc3ccc(F)cc3)c(O)c2=O)C1 [Example 68, 10-((((3S)-3-(Acetylamino)-1-pyrrolidinyl) (oxo)acetyl)amino)-N-(4-fluorobenzyl)-3-hydroxy-4-oxo-4,6,7,8,9,10-hexahydro-7,10-ethanopyrimido[1,2-a]azepine-2-carboxamide]",< 10
7,"O=C(NC12CCC(CC1)Cn1c2nc(C(=O)NCc2ccc(F)cc2)c(O)c1=O)C(=O)N1CCC[C@H]1CO [Example 69, N-(4-Fluorobenzyl)-3-hydroxy-10-((((2S)-2-(hydroxymethyl)-1-pyrrolidinyl)(oxo)acetyl)amino)-4-oxo-4,6,7,8,9,10-hexahydro-7,10-ethanopyrimido[1,2-a]azepine-2-carboxamide]",< 10
8,"O=C(NC12CCC(CC1)Cn1c2nc(C(=O)NCc2ccc(F)cc2)c(O)c1=O)C(=O)N1CCC(F)(F)C1 [Example 70, 10-(((3,3-Difluoro-1-pyrrolidinyl)(oxo)acetyl)amino)-N-(4-fluorobenzyl)-3-hydroxy-4-oxo-4,6,7,8,9,10-hexahydro-7,10-ethanopyrimido[1,2-a]azepine-2-carboxamide]",< 10
9,"CN1CCN(C(=O)C(=O)NC23CCC(CC2)Cn2c3nc(C(=O)NCc3ccc(F)cc3)c(O)c2=O)CC1 [Example 71, N-(4-Fluorobenzyl)-3-hydroxy-10-(((4-methyl-1-piperazinyl)(oxo)acetyl)amino)-4-oxo-4,6,7,8,9,10-hexahydro-7,10-ethanopyrimido[1,2-a]azepine-2-carboxamide]",< 10
10,"O=C(NC12CCC(CC1)Cn1c2nc(C(=O)NCc2ccc(F)cc2)c(O)c1=O)C(=O)N1CCN(CCO)CC1 [Example 72, N-(4-Fluorobenzyl)-3-hydroxy-10-(((4-(2-hydroxyethyl)-1-piperazinyl)(oxo)acetyl)amino)-4-oxo-4,6,7,8,9,10-hexahydro-7,10-ethanopyrimido[1,2-a]azepine-2-carboxamide]",< 10
11,"COCCN1CCN(C(=O)C(=O)NC23CCC(CC2)Cn2c3nc(C(=O)NCc3ccc(F)cc3)c(O)c2=O)CC1 [Example 73, N-(4-Fluorobenzyl)-3-hydroxy-10-(((4-(2-methoxyethyl)-1-piperazinyl)(oxo)acetyl)amino)-4-oxo-4,6,7,8,9,10-hexahydro-7,10-ethanopyrimido[1,2-a]azepine-2-carboxamide]",< 10
12,"O=C(NC12CCC(CC1)Cn1c2nc(C(=O)NCc2ccc(F)cc2)c(O)c1=O)C(=O)N1CCN(C(=O)C2CCCO2)CC1 (stereo not drawn) [Example 74, N-(4-Fluorobenzyl)-3-hydroxy-4-oxo-10-((oxo(4-(tetrahydro-2-furanylcarbonyl)-1-piperazinyl)acetyl)amino)-4,6,7,8,9,10-hexahydro-7,10-ethanopyrimido[1,2-a]azepine-2-carboxamide]",< 10
13,"O=C(NC12CCC(CC1)Cn1c2nc(C(=O)NCc2ccc(F)cc2)c(O)c1=O)C(=O)N1CCN(CCOCCO)CC1 [Example 75, N-(4-Fluorobenzyl)-3-hydroxy-10-(((4-(2-(2-hydroxyethoxy)ethyl)-1-piperazinyl)(oxo)acetyl)amino)-4-oxo-4,6,7,8,9,10-hexahydro-7,10-ethanopyrimido[1,2-a]azepine-2-carboxamide]",< 10
14,"CS(=O)(=O)N1CCN(C(=O)C(=O)NC23CCC(CC2)Cn2c3nc(C(=O)NCc3ccc(F)cc3)c(O)c2=O)CC1 [Example 76, N-(4-Fluorobenzyl)-3-hydroxy-10-(((4-(methylsulfonyl)-1-piperazinyl)(oxo)acetyl)amino)-4-oxo-4,6,7,8,9,10-hexahydro-7,10-ethanopyrimido[1,2-a]azepine-2-carboxamide]",< 10
15,"O=C(NC12CCC(CC1)Cn1c2nc(C(=O)NCc2ccc(F)cc2)c(O)c1=O)C(=O)N1CCN(c2ccccc2)CC1 [Example 77, N-(4-Fluorobenzyl)-3-hydroxy-4-oxo-10-((oxo(4-phenyl-1-piperazinyl)acetyl)amino)-4,6,7,8,9,10-hexahydro-7,10-ethanopyrimido[1,2-a]azepine-2-carboxamide]",< 10
16,"O=C(NC12CCC(CC1)Cn1c2nc(C(=O)NCc2ccc(F)cc2)c(O)c1=O)C(=O)N1CCN(c2ccccn2)CC1 [Example 78, N-(4-Fluorobenzyl)-3-hydroxy-4-oxo-10-((oxo(4-(2-pyridinyl)-1-piperazinyl)acetyl)amino)-4,6,7,8,9,10-hexahydro-7,10-ethanopyrimido[1,2-a]azepine-2-carboxamide]",< 10
17,"O=C(NC12CCC(CC1)Cn1c2nc(C(=O)NCc2ccc(F)cc2)c(O)c1=O)C(=O)N1CCN(C(=O)N2CCOCC2)CC1 [Example 79, N-(4-Fluorobenzyl)-3-hydroxy-10-(((4-(4-morpholinylcarbonyl)-1-piperazinyl)(oxo)acetyl)amino)-4-oxo-4,6,7,8,9,10-hexahydro-7,10-ethanopyrimido[1,2-a]azepine-2-carboxamide]",< 10
18,"CN(C)C(=O)N1CCN(C(=O)C(=O)NC23CCC(CC2)Cn2c3nc(C(=O)NCc3ccc(F)cc3)c(O)c2=O)CC1 [Example 80, 10-(((4-(Dimethylcarbamoyl)-1-piperazinyl)(oxo)acetyl)amino)-N-(4-fluorobenzyl)-3-hydroxy-4-oxo-4,6,7,8,9,10-hexahydro-7,10-ethanopyrimido[1,2-a]azepine-2-carboxamide]",< 10
19,"CN(CCO)C(=O)C(=O)NC12CCC(CC1)Cn1c2nc(C(=O)NCc2ccc(F)cc2)c(O)c1=O [Example 81, N′-(2-((4-Fluorobenzyl)carbamoyl)-3-hydroxy-4-oxo-6,7,8,9-tetrahydro-7,10-ethanopyrimido[1,2-a]azepin-10(4H)-yl)-N-(2-hydroxyethyl)-N-methylethanediamide]",< 10
20,"CN(C(=O)C(=O)NC12CCC(CC1)Cn1c2nc(C(=O)NCc2ccc(F)cc2)c(O)c1=O)C1CC1 [Example 82, N-Cyclopropyl-N′-(2-((4-fluorobenzyl)carbamoyl)-3-hydroxy-4-oxo-6,7,8,9-tetrahydro-7,10-ethanopyrimido[1,2-a]azepin-10(4H)-yl)-N-methylethanediamide]",< 10
21,"CCOC(=O)C(=O)NC12CCC(CC1)Cn1c2nc(C(=O)NCc2ccc(F)cc2)c(O)c1=O [Example 83, Ethyl((2-((4-fluorobenzyl)carbamoyl)-3-hydroxy-4-oxo-6,7,8,9-tetrahydro-7,10-ethanopyrimido[1,2-a]azepin-10(4H)-yl)amino)(oxo)acetate]",< 10
22,"O=C(O)C(=O)NC12CCC(CC1)Cn1c2nc(C(=O)NCc2ccc(F)cc2)c(O)c1=O [Example 84, ((2-((4-Fluorobenzyl)carbamoyl)-3-hydroxy-4-oxo-6,7,8,9-tetrahydro-7,10-ethanopyrimido[1,2-a]azepin-10(4H)-yl)amino) (oxo)acetic acid]",< 10
23,"O=C(NC12CCC(CC1)Cn1c2nc(C(=O)NCc2ccc(F)cc2)c(O)c1=O)C(=O)N1CCC(F)(F)CC1 [Example 85, 10-(((4,4-Difluoro-1-piperidinyl) (oxo)acetyl)amino)-N-(4-fluorobenzyl)-3-hydroxy-4-oxo-4,6,7,8,9,10-hexahydro-7,10-ethanopyrimido[1,2-a]azepine-2-carboxamide]",< 10
24,"CC(=O)N[C@@H]1CCN(C(=O)C(=O)NC23CCC(CC2)Cn2c3nc(C(=O)NCc3ccc(F)cc3)c(O)c2=O)C1 [Example 86, 10-((((3R)-3-(Dcetylamino)-1-pyrrolidinyl)(oxo)acetyl)amino)-N-(4-fluorobenzyl)-3-hydroxy-4-oxo-4,6,7,8,9,10-hexahydro-7,10-ethanopyrimido[1,2-a]azepine-2-carboxamide]",< 10
